According to the NIST ThermoML archive (doi:10.1021/acs.jced.7b00222):
“And” between values parts separate entries of the source, which are not always exact repeats. Equal entries are not always repeated. ± gives the expanded uncertainty stated by the source.

Details: Liquid, Optical interferometry

CO [methanol]
Details | thermal diffusivity
297.95 K, 5300000 kPa | 2.19e-07 ± 1.2e-08 m2/s
298.15 K, 4220000 kPa | 2.17e-07 ± 1.2e-08 m2/s
299.15 K, 0 kPa | 9.7e-08 ± 7e-09 m2/s
299.15 K, 880000 kPa | 1.59e-07 ± 1.2e-08 m2/s
299.15 K, 2430000 kPa | 1.86e-07 ± 1.4e-08 m2/s
299.15 K, 3100000 kPa | 1.92e-07 ± 1.3e-08 m2/s
299.15 K, 3120000 kPa | 1.99e-07 ± 1.3e-08 m2/s
299.75 K, 5000000 kPa | 2.37e-07 ± 4.5e-08 m2/s
299.85 K, 400000 kPa | 1.32e-07 ± 1e-08 m2/s
300.15 K, 370000 kPa | 1.35e-07 ± 1e-08 m2/s
300.75 K, 1750000 kPa | 1.8e-07 ± 1e-08 m2/s
300.95 K, 860000 kPa | 1.57e-07 ± 1.4e-08 m2/s
301.05 K, 1290000 kPa | 1.7e-07 m2/s and 1.66e-07 m2/s

Details | thermal diffusivity [m2/s]
299.15 K | 9.7e-08 ± 6e-09
